Calls of active or inactive are those of the source.
Columns and labels:
[1] = biological target: T1, Short transient receptor potential channel 4 (Mus musculus, UniProt Q9QUQ5); test: mouse TRPC4 channel activators, dose response, cell-based, HEK293 TRPC4/mu-opioid, Fluo-4 calcium (AID 434937); format: functional
T1 sequence (Q9QUQ5 whole entry): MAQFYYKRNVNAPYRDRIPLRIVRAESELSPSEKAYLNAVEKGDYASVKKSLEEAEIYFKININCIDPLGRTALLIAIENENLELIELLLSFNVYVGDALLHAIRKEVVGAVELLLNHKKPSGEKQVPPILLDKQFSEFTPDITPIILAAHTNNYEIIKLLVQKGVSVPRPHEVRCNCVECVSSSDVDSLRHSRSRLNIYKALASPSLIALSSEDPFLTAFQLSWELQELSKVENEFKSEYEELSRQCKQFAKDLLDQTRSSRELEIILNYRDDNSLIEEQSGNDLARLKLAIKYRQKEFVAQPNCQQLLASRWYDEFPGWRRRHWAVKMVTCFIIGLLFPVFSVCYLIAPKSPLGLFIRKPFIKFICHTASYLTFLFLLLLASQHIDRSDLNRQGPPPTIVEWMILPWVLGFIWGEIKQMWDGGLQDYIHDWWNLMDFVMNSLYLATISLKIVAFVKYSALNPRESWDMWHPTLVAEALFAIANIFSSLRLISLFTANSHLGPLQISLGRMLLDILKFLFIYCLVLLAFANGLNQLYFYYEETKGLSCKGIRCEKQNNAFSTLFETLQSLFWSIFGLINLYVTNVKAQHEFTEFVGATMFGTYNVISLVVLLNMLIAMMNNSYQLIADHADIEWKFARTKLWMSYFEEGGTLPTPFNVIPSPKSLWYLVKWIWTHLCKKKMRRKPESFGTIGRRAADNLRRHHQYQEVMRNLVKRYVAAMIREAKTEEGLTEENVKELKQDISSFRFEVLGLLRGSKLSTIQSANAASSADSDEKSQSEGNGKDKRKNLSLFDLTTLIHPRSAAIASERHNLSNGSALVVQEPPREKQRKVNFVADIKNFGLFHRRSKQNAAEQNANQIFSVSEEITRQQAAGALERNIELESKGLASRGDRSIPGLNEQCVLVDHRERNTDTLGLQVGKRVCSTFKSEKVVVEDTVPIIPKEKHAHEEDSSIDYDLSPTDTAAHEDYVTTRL

H4 = test: Luminescence Cell-Based Dose Response HTS to Identify Activators of 5'UTR Stem-Loop Driven Prion Protein mRNA Translation in H4 Neuroglioblastoma Cells. [Related pubchem assays: 1829 (Project Summary), 1814 (Primary HTS)]; format: functional; conditions: Homo sapiens
[2] = Luminescence Cell-Based Dose Confirmation HTS to Identify Activators of 5'UTR Stem-Loop Driven Alpha-Synuclein mRNA Translation in H4 Neuroglioblastoma Cells. [Related pubchem assays: 1829 (Project Summary), 1814 (Primary HTS)]; format: functional
[3] = Luminescence Cell-Based Dose Response HTS to Identify Activators of Luciferase Translation or Activity in H4 […] Cells. [Related pubchem assays: 1829 (Project Summary), 1814 (Primary HTS)]; format: functional
[4] = biological target: T2, High affinity choline transporter 1 (Homo sapiens, UniProt Q9GZV3); test: CHT inhibitors, dose response, cell-based, 5-point CRC, membrane potential dye (AID 504840); format: functional
T2 sequence (Q9GZV3 whole entry): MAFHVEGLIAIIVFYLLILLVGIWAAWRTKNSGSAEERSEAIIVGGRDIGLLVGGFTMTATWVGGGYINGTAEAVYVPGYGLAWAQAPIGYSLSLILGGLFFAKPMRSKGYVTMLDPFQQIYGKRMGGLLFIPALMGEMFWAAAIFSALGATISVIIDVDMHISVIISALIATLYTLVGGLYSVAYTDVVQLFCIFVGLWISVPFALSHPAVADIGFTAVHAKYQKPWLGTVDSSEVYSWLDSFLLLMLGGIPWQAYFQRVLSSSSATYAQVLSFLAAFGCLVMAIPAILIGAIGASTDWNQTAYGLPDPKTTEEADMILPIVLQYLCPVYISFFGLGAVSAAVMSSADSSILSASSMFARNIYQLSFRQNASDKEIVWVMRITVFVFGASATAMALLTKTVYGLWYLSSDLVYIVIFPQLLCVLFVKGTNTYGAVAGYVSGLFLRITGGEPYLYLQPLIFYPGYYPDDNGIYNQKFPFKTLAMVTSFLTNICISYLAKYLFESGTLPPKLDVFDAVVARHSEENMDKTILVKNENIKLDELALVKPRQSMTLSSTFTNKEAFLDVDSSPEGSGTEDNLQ

Streptococcus = test: Group A Streptococcus viability loss, dose response, counter-screen for streptokinase expression inhibitor project, luminescence, BacTiterGlo (AID 1915); format: functional, organism-based;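 note: potency for reduction of bacterial viability or growth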
Streptokinase A = biological target: T3, Streptokinase A (Streptococcus pyogenes serotype M1, UniProt P10520); test: S. pyogenes streptokinase expression inhibitors, potency, dose response, plasminogen activation absorbance, OD405 (AID 1914); format: functional, Streptococcus pyogenes M1 GAS;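 note: secreted streptokinase activity via plasminogen activation per viability signal from cell pellet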
T3 sequence (P10520 whole entry): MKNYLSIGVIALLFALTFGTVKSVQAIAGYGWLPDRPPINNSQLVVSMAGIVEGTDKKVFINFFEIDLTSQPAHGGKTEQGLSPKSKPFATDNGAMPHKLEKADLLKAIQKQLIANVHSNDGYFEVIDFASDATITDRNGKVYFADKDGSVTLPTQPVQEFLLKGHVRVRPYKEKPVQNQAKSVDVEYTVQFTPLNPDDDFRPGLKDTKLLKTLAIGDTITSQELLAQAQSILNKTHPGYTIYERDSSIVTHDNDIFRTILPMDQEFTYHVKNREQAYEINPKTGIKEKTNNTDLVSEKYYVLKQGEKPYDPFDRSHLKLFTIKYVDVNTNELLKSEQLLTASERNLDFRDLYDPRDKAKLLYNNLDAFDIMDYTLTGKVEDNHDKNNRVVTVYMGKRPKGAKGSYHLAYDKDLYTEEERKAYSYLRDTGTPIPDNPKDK

[5] = tested on: Streptococcus sp. 'group A'; test: growth inhibition of control SK(-) GAS strain, dose response, counter-screen for streptokinase expression inhibitor project, luminescence, kanamycin, BacTiterGlo, confirmation (AID 1900); format: functional, organism-based
[6] = cytotoxicity toward NIH3T3 fibroblasts, dose response, counter-screen, cell-based, ATP luminescence, mouse fibroblasts (AID 2010); format: functional;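 note: cells exposed to compound for about 90 hours before reading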
[7] = inhibitors of intracellular T. cruzi replication, confirmation, NIH3T3 host cells, beta-gal luminescence (AID 2044); format: functional, cell-based;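 note: intracellular parasites grown in NIH/3T3 mouse fibroblasts as host cells; luminescent beta-galactosidase reporter signal from transgenic T. cruzi replicating inside host cells; inhibitors lower the luminescence signal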
INS1 = test: beta cell apoptosis inhibitors, cytokine rescue, dose response, luminescence, retest (AID 449756); format: functional, cell-based; conditions: Rattus norvegicus;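 note: cell death triggered by IL-1 beta plus TNF-alpha plus IFN-gamma mixture; protective hits raise ATP signal compared with cytokine alone wells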
Fatty acid synthase = Fatty acid synthase (Homo sapiens, UniProt P49327); test: FAS thioesterase domain inhibitors, dose response, biochemical, kinetic fluorescence intensity (AID 624326); format: functional;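 note: rate of fluorescence rise from hydrolysis of a fluorogenic O-methyl fluorescein ester substrate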
[8] = biological target: T4, Heat shock factor protein 1 (Mus musculus, UniProt P38532); test: HSF1 potentiators in luciferase reporter cells, confirmation, cell-based, NIH3T3, luminescence, dose retest (AID 435004); format: functional;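 note: stress induced by proteasome inhibitor MG132 added 30 min after compound; luciferase reporter driven by HSF1 response element in NIH3T3 cells; actives raise luminescence as potentiators of the MG132 stress response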
T4 sequence (P38532 whole entry): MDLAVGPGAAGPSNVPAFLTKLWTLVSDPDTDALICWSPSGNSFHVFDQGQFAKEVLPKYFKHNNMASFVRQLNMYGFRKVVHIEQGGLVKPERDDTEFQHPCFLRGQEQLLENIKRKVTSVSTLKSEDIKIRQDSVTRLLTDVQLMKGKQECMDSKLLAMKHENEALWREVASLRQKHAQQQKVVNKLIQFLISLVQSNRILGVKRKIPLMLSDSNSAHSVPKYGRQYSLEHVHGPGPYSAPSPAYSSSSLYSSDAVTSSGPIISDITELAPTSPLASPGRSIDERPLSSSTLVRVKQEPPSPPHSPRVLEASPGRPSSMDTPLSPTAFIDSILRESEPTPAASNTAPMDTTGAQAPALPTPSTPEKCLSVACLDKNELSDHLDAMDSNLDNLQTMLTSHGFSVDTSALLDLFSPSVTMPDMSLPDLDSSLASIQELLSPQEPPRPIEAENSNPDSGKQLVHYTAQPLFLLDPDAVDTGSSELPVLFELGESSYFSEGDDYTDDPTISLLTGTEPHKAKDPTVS

[9] = ZM109 Env clade C HIV-1 fusion inhibitors, dose response, HeLa effector, CEM target cells, luciferase, cherry-pick (AID 652058); format: functional, cell-based
[10] = biological target: FAD-linked sulfhydryl oxidase ALR (Homo sapiens, UniProt P55789); test: inhibitors of human ALR sulfhydryl oxidase, dose response, biochemical, H2O2 detection, luminescence, cherry-pick (AID 493248)
[11] = biological target: T5, Corticotropin-releasing factor receptor 2/Corticotropin-releasing factor-binding protein (Homo sapiens, UniProt P24387+Q13324); test: activators of CRF receptor 2 with binding protein – uHTS hits, confirmation (AID 602473); format: functional; conditions: read-out: EC50_Mean
T5 sequence (Q13324 whole entry): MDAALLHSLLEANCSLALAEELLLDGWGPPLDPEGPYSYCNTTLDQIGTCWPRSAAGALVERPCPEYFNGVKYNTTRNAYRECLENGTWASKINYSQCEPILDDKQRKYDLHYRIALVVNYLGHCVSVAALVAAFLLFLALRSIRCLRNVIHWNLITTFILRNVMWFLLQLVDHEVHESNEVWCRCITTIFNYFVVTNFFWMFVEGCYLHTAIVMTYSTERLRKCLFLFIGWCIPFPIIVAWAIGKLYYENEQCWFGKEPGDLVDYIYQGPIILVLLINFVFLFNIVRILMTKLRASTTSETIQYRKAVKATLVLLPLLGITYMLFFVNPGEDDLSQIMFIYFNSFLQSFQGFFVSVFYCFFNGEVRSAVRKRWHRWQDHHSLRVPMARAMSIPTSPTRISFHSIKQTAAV
T5 sequence (P24387 whole entry): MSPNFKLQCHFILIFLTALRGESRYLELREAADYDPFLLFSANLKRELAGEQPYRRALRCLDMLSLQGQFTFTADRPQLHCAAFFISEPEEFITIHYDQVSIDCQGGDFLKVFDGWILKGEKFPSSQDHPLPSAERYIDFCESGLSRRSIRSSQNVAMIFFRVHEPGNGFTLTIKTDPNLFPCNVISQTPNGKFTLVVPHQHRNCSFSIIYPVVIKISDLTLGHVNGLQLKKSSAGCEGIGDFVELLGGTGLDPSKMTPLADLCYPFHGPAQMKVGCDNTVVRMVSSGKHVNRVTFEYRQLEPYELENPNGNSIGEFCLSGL

[12] = inhibitors of HIV Env-driven cell fusion, dose response, cherry-pick (AID 652057); format: functional, cell-based
[13] = inhibitors of clade B AD8 Env fusion, dose response, cell-based, cherry-pick (AID 652062); format: functional;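 note: luciferase signal from cell-cell fusion driven by HIV-1 clade B AD8 Env; potency is for inhibitors of fusion seen as a drop in luminescence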

Sequence of FAD-linked sulfhydryl oxidase ALR (P55789 whole entry): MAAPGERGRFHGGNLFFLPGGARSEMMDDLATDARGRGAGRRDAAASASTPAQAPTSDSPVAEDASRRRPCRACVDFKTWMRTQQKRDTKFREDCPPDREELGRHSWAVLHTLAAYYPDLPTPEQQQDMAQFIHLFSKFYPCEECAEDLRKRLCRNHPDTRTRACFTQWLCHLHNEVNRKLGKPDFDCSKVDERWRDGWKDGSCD
Sequence of Fatty acid synthase (P49327 whole entry, the tested form may be a part): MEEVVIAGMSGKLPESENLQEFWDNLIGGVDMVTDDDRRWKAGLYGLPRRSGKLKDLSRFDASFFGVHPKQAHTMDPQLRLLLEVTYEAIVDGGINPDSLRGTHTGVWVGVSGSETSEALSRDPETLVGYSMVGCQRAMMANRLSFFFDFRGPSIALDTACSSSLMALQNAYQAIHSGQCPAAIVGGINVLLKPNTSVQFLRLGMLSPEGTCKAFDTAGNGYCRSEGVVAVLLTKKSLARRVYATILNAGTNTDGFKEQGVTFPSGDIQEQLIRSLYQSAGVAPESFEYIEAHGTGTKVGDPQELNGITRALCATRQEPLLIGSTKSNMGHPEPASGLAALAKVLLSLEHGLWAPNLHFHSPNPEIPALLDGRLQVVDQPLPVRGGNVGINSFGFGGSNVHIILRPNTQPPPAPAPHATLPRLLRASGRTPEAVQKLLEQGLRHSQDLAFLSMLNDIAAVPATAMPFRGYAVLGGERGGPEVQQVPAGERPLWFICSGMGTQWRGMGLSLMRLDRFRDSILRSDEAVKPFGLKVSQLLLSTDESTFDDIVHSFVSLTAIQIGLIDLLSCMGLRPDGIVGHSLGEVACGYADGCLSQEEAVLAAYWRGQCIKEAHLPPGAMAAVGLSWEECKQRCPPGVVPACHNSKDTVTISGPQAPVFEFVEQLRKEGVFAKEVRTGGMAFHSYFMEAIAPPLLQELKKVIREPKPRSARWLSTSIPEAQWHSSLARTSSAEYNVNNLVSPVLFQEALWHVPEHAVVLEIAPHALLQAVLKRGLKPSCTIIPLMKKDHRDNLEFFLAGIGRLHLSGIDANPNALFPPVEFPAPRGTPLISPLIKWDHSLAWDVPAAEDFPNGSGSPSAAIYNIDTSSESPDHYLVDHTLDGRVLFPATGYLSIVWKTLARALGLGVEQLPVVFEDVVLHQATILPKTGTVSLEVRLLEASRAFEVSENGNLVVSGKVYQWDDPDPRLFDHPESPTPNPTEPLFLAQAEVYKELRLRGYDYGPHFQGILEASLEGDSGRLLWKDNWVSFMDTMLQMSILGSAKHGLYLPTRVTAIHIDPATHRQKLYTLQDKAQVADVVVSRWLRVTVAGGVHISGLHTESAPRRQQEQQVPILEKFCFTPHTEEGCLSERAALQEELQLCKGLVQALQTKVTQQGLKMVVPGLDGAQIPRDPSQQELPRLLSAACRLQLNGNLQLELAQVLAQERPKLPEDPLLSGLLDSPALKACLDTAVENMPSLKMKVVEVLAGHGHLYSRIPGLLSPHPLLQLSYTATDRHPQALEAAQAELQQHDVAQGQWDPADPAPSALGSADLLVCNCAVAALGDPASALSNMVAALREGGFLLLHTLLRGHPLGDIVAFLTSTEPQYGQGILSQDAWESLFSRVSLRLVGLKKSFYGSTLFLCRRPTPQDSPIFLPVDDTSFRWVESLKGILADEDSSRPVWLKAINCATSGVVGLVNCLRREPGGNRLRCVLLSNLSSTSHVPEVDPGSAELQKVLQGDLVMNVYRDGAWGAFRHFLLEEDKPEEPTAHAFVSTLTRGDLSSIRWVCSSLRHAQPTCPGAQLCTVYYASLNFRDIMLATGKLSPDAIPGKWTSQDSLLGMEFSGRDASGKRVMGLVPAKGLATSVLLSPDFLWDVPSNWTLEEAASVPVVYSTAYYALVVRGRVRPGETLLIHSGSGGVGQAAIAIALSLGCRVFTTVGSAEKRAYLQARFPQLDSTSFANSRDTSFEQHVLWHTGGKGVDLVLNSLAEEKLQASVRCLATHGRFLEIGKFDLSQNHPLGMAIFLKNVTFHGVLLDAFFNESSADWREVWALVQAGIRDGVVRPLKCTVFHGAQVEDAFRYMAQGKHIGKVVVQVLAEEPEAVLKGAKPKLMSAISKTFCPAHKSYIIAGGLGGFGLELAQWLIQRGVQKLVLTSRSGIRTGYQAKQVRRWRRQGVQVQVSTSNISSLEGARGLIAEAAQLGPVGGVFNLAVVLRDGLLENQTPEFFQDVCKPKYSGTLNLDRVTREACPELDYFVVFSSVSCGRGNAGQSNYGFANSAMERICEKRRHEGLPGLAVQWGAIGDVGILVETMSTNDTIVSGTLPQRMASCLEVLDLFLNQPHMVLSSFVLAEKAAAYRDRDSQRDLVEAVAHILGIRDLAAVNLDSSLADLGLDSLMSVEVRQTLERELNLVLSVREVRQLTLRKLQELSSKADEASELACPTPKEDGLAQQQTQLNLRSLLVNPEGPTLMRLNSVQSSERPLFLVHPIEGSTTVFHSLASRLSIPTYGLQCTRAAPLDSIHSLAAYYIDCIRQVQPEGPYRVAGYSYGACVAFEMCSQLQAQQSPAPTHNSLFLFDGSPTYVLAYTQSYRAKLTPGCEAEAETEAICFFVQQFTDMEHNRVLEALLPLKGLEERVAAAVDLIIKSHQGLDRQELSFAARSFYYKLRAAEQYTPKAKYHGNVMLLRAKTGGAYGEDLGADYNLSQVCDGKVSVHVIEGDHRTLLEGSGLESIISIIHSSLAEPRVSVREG

## Cc1noc(C)c1S(=O)(=O)N1CCC(C(=O)NCCCN2CC(C)CC(C)C2)CC1 (stereo unspecified)
[1]
  EC50: 0.473 µM (active)

## Cc1ccc2nc3c(O)n(CCc4c[nH]cn4)cnc-3c2c1
[1]
  EC50: 1.88 µM (active)

## Cc1ccc(Nc2nc(CSc3nnc(-c4ccc(F)cc4)n3C)cs2)cc1
H4
  EC50: 15 µM (active)
[2]
  EC50: 17.2 µM (active)
[3]
  EC50: 16.9 µM (active)
[4]
  IC50: 15.8 µM (active)

## O=C(NC(=S)NNC(=O)c1ccccc1[N+](=O)[O-])c1ccc(Br)cc1
[1]
  EC50: 11.9 µM (active)
Streptococcus
  EC50: 11.6 µM (active)
Streptokinase A
  EC50: > 150 µM (not active)
[5]
  EC50: 4.24 µM (active)

## CCCc1cc(Nc2c(C)n(C)n(-c3ccccc3)c2=O)n2c(nc3ccccc32)c1C#N
[4]
  IC50: 13.8 µM (active)

## c1ccc2c(CN3CCCCCCC3)c[nH]c2c1
[6]
  EC50: > 30 µM (not active)
[7]
  EC50: 1.15 µM (active)
INS1
  AC50: 4.22 µM (active)
[4]
  IC50: 12.6 µM (active)

## CCn1c(N2CCN(CC(=O)Nc3cccc(C)c3C)CC2)nc2ccccc21
[1]
  EC50: 2.11 µM (active)

## CCN(CC(=O)Nc1cccc(OC)c1)c1ncnc2sc(C)c(C)c12
[4]
  IC50: 7.24 µM (active)

## O=C(c1cc2c(nc1O)CCCC2)N1CCc2c([nH]c3ccccc23)C1c1ccccc1F (stereo unspecified)
[4]
  IC50: 19.1 µM (active)

## CCCc1cc(C(=O)Nc2cccc([N+](=O)[O-])c2)cs1
Fatty acid synthase
  IC50: 8.66 µM (active)

## O=C(CSc1nc2ccccc2[nH]1)c1ccc2c(c1)OCO2
[4]
  IC50: 10 µM (active)

## CCOc1ncccc1C(=O)NCC(c1ccccc1)N(C)C (stereo unspecified)
[1]
  EC50: 1.19 µM (active)

## CN(C)CCN(C(=O)c1cccc2ccccc12)c1nc2cc3c(cc2s1)OCO3
[1]
  EC50: 5.96 µM (active)

## C=C(C)CN(CC)c1nc(N)c2c(N)nc3c(c2c1C#N)CC(=O)N3C12CC3CC(CC(C3)C1)C2
[6]
  EC50: > 60 µM (not active)
[7]
  EC50: 1.69 µM (active)
[8]
  EC50: > 260 µM (inactive)
[9]
  AC50: 7.36 µM (active)

## Sc1n[nH]c(-c2cc(Cl)cc(Cl)c2)n1
[10]
  AC50: 1.72 µM (active)
[4]
  IC50: 10.5 µM (active)

## Cn1c2ccccc2c(=O)c2c(=O)n(C3CCCCC3)c(-c3ccco3)nc21
[11]
  EC50: 8.22 µM (active)
[1]
  EC50: 4.73 µM (active)

## CC(C)N(C)CCOC(=O)C1COc2ccccc2O1 (stereo unspecified)
[4]
  IC50: 13.8 µM (active)

## COc1ccccc1Nc1ncnc2ccc(C)cc12
[4]
  IC50: 13.8 µM (active)

## Cc1ccc(C(=O)Nc2ccc(S(=O)(=O)NC3=NCCCCC3)cc2)c(C)c1
[4]
  IC50: 10.8 µM (active)

## CC(C)NC(=O)Nc1ccc2c(c1)C(=O)N([C@@H](C)CO)C[C@@H](C)[C@@H](CN(C)C(=O)CCC(F)(F)F)OCCCC[C@@H](C)O2
[12]
  AC50: 0.969 µM (active)
[13]
  AC50: 2.7 µM (active)
[9]
  AC50: 0.518 µM (active)

## CCCNC(=O)N1[C@H](C#N)[C@H](c2ccc(-c3ccc(C(=O)N(C)C)cc3)cc2)[C@@H]1CO
[13]
  AC50: 0.784 µM (active)
[9]
  AC50: 32.8 µM (active)

## Cc1ccc(S(=O)(=O)N(C)C[C@@H]2Oc3cc(C4=CCCC4)ccc3S(=O)(=O)N([C@@H](C)CO)C[C@H]2C)cc1
[12]
  AC50: 4.07 µM (active)
[13]
  AC50: 41.6 µM (active)
[9]
  AC50: 67.6 µM (active)

Source: ChEMBL document CHEMBL1201862, “PubChem BioAssay data set” (2004)
